Results as given in patent US20110301046A1, “Methods of Determining Efficacy of Glucocorticoid Treatment of Eosinophilic Esophagitis” (Children's Hospital Medical Center, priority 2008, published 2011).

Assays:
FKBP51 transcripts = assay: Whole genome microarray analysis of esophageal biopsy samples from EE patients treated with swallowed FP; format: in vivo, human; details: esophageal biopsies
Excerpt: FIG. 1 depicts the identification of glucocorticoid-regulated genes in EE patients that respond to FP treatment. (A) Analysis of microarray data to identify glucocorticoid-regulated transcripts. RNA from distinct patient populations was subjected to chip analysis using Affymetrix Human Genome U 133 Plus 2.0 GeneChips®. The groups are composed of the following numbers of patients: normal (NL), n=14; EE, n=14; EE, FP responders (EE R), n=13; EE, FP non-responders, n=8. Using the average expression for each patient group, the subset of genes differentially regulated between normal (NL) and EE patients was identified by t-test (p<0.01). The subset of genes differentially regulated between normal patients and EE patients that respond to FP (EE R) was then identified by 2-fold change filter. Subsequently, the subset of genes differentially regulated between NL and EE patients was subtracted from those differentially regulated between NL and EE R. These transcripts were then subjected to ANOVA, p<0.01. […] The average expression level for each patient group (normal, EE, Flovent® (fluticasone propionate) responders, Flovent® non-responders) is expressed as fold-change compared to the normal patients. […] The transcript levels for the indicated gene for each patient population was quantified by real-time PCR and normalized to glyceraldehyde-3-phosphate dehydrogenase (GAPDH) levels. […]

[1] = system: FKBP51, KRT7, H19 transcripts; assay: Real-time PCR analysis of glucocorticoid-regulated genes in patient esophageal biopsies; format: in vivo, human
Excerpt: FIG. 2 depicts the verification of transcript levels of glucocorticoid-regulated genes by real-time PCR analysis. (A) Microarray data for three glucocorticoid-regulated genes. The average expression level for each patient group (normal, EE, Flovent® (fluticasone propionate) responders, Flovent® non-responders) is expressed as fold-change compared to the normal patients. (B) Real-time PCR analysis for three glucocorticoid-regulated genes. The transcript levels for the indicated gene for each patient population was quantified by real-time PCR and normalized to glyceraldehyde-3-phosphate dehydrogenase (GAPDH) levels. […] The expression pattern of three of the identified candidate genes was validated by real-time PCR analysis.

[2] = system: FKBP51 transcript in peripheral blood mononuclear cells; assay: FKBP51 induction in PBMCs cultured ex vivo, real-time PCR; format: cell-based, human; details: all FP concentrations tested, 24 h, normalized to GAPDH
Procedure: (§1) FIG. 3 depicts FKBP51 induction following glucocorticoid treatment. (A) Peripheral blood mononuclear cells (PBMCs) were isolated from a patient blood sample and cultured ex vivo. The cells were treated with the indicated concentration of FP for 24 h. RNA was isolated, cDNA synthesis was performed, and real-time PCR analysis was conducted. FKBP51 transcript levels were normalized to GAPDH levels. (B) Primary esophageal epithelial cells were cultured from the biopsy of an EE patient with active disease. Cells were treated or not with 10^−6 M FP for 24 h. Protein extracts were prepared and subjected to SDS-PAGE and western blot analysis for FKBP51 and actin (left). FKBP51 and actin levels were quantified by densitometry analysis. The ratio of FKBP51 to actin is shown (right). (C) TE-7 cells were treated with the indicated dose of FP for 24 h. Protein extracts were then prepared and subjected to SDS-PAGE and western blot analysis for FKBP51 and actin (top). Densitometry analysis was performed and the fold-change in the ratio of FKBP51 to actin expression is graphed (bottom). (D) TE-7 cells were treated for the indicated amount of time with 10^−7 M FP. RNA was isolated, cDNA synthesis was performed, and real-time PCR analysis to detect FKBP51 and GAPDH transcripts was done (left). […]

[3] = system: FKBP51 protein in primary esophageal epithelial cells; assay: FKBP51 protein in primary esophageal epithelial cells from an EE patient, western blot; format: cell-based, human; details: 10^-6 M FP, 24 h, FKBP51 to actin ratio
Procedure: as §1

FKBP51 in TE-7 cells = assay: FKBP51 induction in TE-7 esophageal cell line, western blot and real-time PCR; format: cell-based
Procedure: FIG. 3 depicts FKBP51 induction following glucocorticoid treatment. (A) Peripheral blood mononuclear cells (PBMCs) were isolated from a patient blood sample and cultured ex vivo. The cells were treated with the indicated concentration of FP for 24 h. RNA was isolated, cDNA synthesis was performed, and real-time PCR analysis was conducted. FKBP51 transcript levels were normalized to GAPDH levels. (B) Primary esophageal epithelial cells were cultured from the biopsy of an EE patient with active disease. Cells were treated or not with 10^−6 M FP for 24 h. Protein extracts were prepared and subjected to SDS-PAGE and western blot analysis for FKBP51 and actin (left). FKBP51 and actin levels were quantified by densitometry analysis. The ratio of FKBP51 to actin is shown (right). (C) TE-7 cells were treated with the indicated dose of FP for 24 h. Protein extracts were then prepared and subjected to SDS-PAGE and western blot analysis for FKBP51 and actin (top). Densitometry analysis was performed and the fold-change in the ratio of FKBP51 to actin expression is graphed (bottom). (D) TE-7 cells were treated for the indicated amount of time with 10^−7 M FP. RNA was isolated, cDNA synthesis was performed, and real-time PCR analysis to detect FKBP51 and GAPDH transcripts was done (left). In a separate experiment, protein extracts were prepared and then subjected to SDS-PAGE and western blot analysis for FKBP51 and actin (right, top). Following densitometry analysis, the fold-change in the ratio of FKBP51 to actin signal was graphed (right, bottom)*, p<0.05; **, p<0.01. To further study the role of FKBP51 in epithelial cells, the TE-7 esophageal cell line was used to understand the expression patterns of FKBP51 following FP treatment. […] The kinetics of FKBP51 Mrna and protein expression were examined following FP treatment. […] Similarly, FKBP51 protein levels in TE-7 cells increased in a time dependent manner, with maximum levels of protein observed by 24 h following treatment.

[4] = system: eotaxin-3 transcript in TE-7 cells; assay: IL-13-induced eotaxin-3 transcript levels in TE-7 cells, real-time PCR; format: cell-based; details: IL-13 100 ng/ml, 24 h
Procedure: (§2) FIG. 4 depicts IL-13 induced transcript levels of two representative genes are reversed by FP treatment. TE-7 cells were treated as indicated with IL-13 (100 ng/ml) and/or the indicated dose of FP for 24 h. RNA was isolated and cDNA synthesis was performed. Transcript levels of eotaxin-3 (A) and serpinb4 (B) were determined by real-time PCR analysis and normalized to GAPDH levels. *, p<0.05; **, p<0.01.
(§3) IL-13 signaling in esophageal epithelial cells is known to have a role in EE pathogenesis by inducing the EE transcriptome. […] When TE-7 cells are treated with IL-13, an increase in eotaxin-3 and serpinb4 transcript levels is observed (FIG. 4A, B).

[5] = system: serpinb4 transcript in TE-7 cells; assay: IL-13-induced serpinb4 transcript levels in TE-7 cells, real-time PCR; format: cell-based; details: IL-13 100 ng/ml, 24 h
Procedure: as §2, §3

eotaxin-3 promoter = assay: Eotaxin-3 promoter luciferase reporter in transfected TE-7 cells, dual luciferase assay; format: cell-based
Procedure: FIG. 5 depicts increased baseline FKBP51 levels impact glucocorticoid repression of IL-13-induced eotaxin-3 promoter activity. (A) Schematics of constructs used in this study. GRE, glucocorticoid response element. CMV, cytomegalovirus promoter. (B) Cells were transfected with Phrl-TK, pEotaxin-3, and Pcdna3.1 or Pfkbp51. Cells were then treated with IL-13 ([…]) and/or FP (10^−6 M) for 24 h. Protein lysates were then collected, and firefly and Renilla luciferase activity for each sample were quantified by dual luciferase assay (Promega). Eotaxin-3 promoter activity is expressed as the ratio of firefly to Renilla luciferase activity. **, p<0.01; ***, p<0.001.
(§4) Cells were transfected with Phrl-TK and pEotaxin-3 (A) or pEotaxin-3 3′UTR (B) for 48 h. Cells were then treated with IL-13 (100 ng/ml) and/or FP (10^−6 M) for 24 h. Protein lysates were then collected, and firefly and Renilla luciferase activity for each sample was quantified by dual luciferase assay (Promega). Eotaxin-3 promoter activity is expressed as the ratio of firefly to Renilla luciferase activity. **, p<0.01.
(§5) The contribution of the promoter and 3′ UTR sequences of eotaxin-3 to the control of its gene expression following IL-13 and FP treatment, was tested using TE-7 cells transiently transfected with a luciferase reporter construct. The cells were transfected with a luciferase reporter construct containing either 800 bp of the eotaxin-3 promoter 5′ of the firefly luciferase gene in the Pg13-Basic vector or a plasmid containing 200 bp of the eotaxin-3 3′ UTR downstream of the firefly luciferase gene in the Pg13-Promoter vector (FIG. 5A). The same cells were co-transfected with a plasmid containing Renilla luciferase under a constitutive promoter (Phrl-TK) that served as a control for transfection efficiency. Part of the observed decrease in IL-13 induced eotaxin-3 Mrna levels following FP treatment can be mediated through modulation of the promoter activity due to the presence of a putative glucocorticoid-responsive element (GRE) in this region (FIG. 5A).
To test whether increased FKBP51 levels impacted the FP-mediated decrease in IL-13-induced eotaxin-3 promoter activity, TE-7 cells were transfected with either empty vector (Pcdna3.1) or an expression construction that contained FKBP51 under the control of the CMV promoter (Pfkbp51, FIG. 5A) to simulate high baseline levels of FKBP51. […] However, when cells were transfected with the FKBP51 expression vector, the FP-mediated decrease in IL-13 induced eotaxin-3 promoter activity was abolished (FIG. 5B).

eotaxin-3 3' UTR = assay: Eotaxin-3 3' UTR luciferase reporter in transfected TE-7 cells, dual luciferase assay; format: cell-based; details: IL-13 100 ng/ml and/or FP 10^-6 M, 24 h, FIG. 6B
Procedure: as §4, §5

[6] = average, FIG. 2B, real-time PCR

Compound	increase in FKBP51 transcripts in FP-responders compared to control and active EE individuals (FKBP51 transcripts)	FKBP51 levels in FP responders compared to normal patients [1, 6]	FKBP51 transcript levels in FP non-responder patients compared to normal patients [1, 6]	FKBP51, KRT7 and H19 transcript levels in FP responder patients compared to untreated patients ([1]; microarray and real-time PCR)	FKBP51 transcript levels in isolated PBMCs [2]	increase in FKBP51 protein in primary esophageal epithelial cells [3]	FKBP51 transcript levels in TE-7 cells over time (FKBP51 in TE-7 cells; 10^-7 M FP, real-time PCR)	time of maximum FKBP51 protein levels in TE-7 cells (FKBP51 in TE-7 cells; 10^-7 M FP, western blot)	FKBP51 protein levels in TE-7 cells in response to FP dose (FKBP51 in TE-7 cells; various doses of FP, 24 h, western blot)	IL-13 mediated increase in eotaxin-3 transcript levels on concomitant FP treatment ([4]; indicated doses of FP)	IL-13 mediated increase in serpinb4 transcript levels on concomitant FP treatment ([5]; indicated doses of FP)	FP-mediated decrease in IL-13 induced eotaxin-3 promoter activity in cells transfected with FKBP51 expression vector (eotaxin-3 promoter; FKBP51 expression vector, IL-13 10 ng/ml, FP 10^-6 M, 24 h, FIG. 5B)	reduction of FP-mediated inhibition of IL-13-induced eotaxin-3 expression by FKBP51 overexpression (eotaxin-3 promoter; FKBP51 overexpression in TE-7 cells)	IL-13-induced eotaxin-3 promoter activity upon concomitant FP treatment (eotaxin-3 promoter; IL-13 100 ng/ml, FP 10^-6 M, 24 h, FIG. 6A)	reduction of IL-13-induced eotaxin-3 promoter activity by concomitant FP (eotaxin-3 promoter; empty vector, IL-13 10 ng/ml, FP 10^-6 M, 24 h, FIG. 5B)	modulation of mRNA stability via eotaxin-3 3' UTR sequence (eotaxin-3 3' UTR)	eotaxin-3 transcript levels on IL-13 treatment ([4]; TE-7 cells)	serpinb4 transcript levels on IL-13 treatment ([5]; TE-7 cells)	increase in eotaxin-3 promoter activity upon IL-13 treatment (eotaxin-3 promoter; empty vector, IL-13 10 ng/ml, 24 h, FIG. 5B)
CCC(=O)O[C@]1(C(=O)SCF)[C@H](C)C[C@H]2[C@@H]3C[C@H](F)C4=CC(=O)C=C[C@]4(C)[C@@]3(F)[C@@H](O)C[C@@]21C [FP, S-fluoromethyl-6α,9-difluoro-11β-hydroxy-16α-methyl-3-oxoandrosta-1,4-diene-17β-carbothioate, 17-propionate]	4 fold	4 fold	1.5 fold	increased transcript levels	significant increase	approximately 3 fold	increased by 4 h post treatment and were further increased by 8 h, after which no further increase was observed	≤ 24 h	dose-dependent increase	decreased in a dose-dependent manner	decreased in a dose-dependent manner	abolished	50%	decrease	50%	did not show any modulation			
IL-13: cytokine used to induce eotaxin-3 and serpinb4 in TE-7 esophageal epithelial cells																did not show any modulation	increase	increase	2 fold
